Source: patent US11617726B2, “Method for preventing, treating, or ameliorating a microbial infection” (priority 2018, dated 2023)

Experiments:
Format in all cases: cell-based
[1] = test system: Pseudomonas aeruginosa ATCC 27853; assay: MIC determination by broth dilution method (CLSI M07-A9); conditions: P. aeruginosa ATCC 27853
Method: (§1) Minimum Inhibitory Concentration (MIC) is the lowest concentration of an antimicrobial agent that prevents visible growth of a microorganism in an agar or broth dilution susceptibility test. MIC of thymoquinone was determined by the broth dilution method against 33 MDR Acinetobacter baumannii strains and standard sensitive culture collection strain of Acinetobacter baumannii and Pseudomonas aeruginosa. The MIC of gentamicin was deter lined by broth dilution method against six MDR Acinetobacter baumannii strains and standard sensitive culture collection strains of Acinetobacter baumannii and Pseudomonas aeruginosa. MIC testing was performed according to the recommendations and guidelines of Clinical Laboratory Standard Institutes (CLSI M07-A9; 2012). Clinical and Laboratory Standards Institute (CLSI), “Methods for Dilution Antimicrobial Susceptibility Tests for Bacteria That Grow Aerobically; Approved Standard,” Document M07-A9, Clinical and Laboratory Standards Institute (CLSI), Wayne, Pa., USA, 2012.
(§2) Twenty-one grams of Mueller-Hinton Broth (MHB) was suspended in 1 Liter distilled water and then boiled to dissolve the powder completely. The medium was sterilized by autoclaving at 121° C. for 15 min. After autoclaving, the medium was cooled to room temperature before use or stored in the fridge until used.
(§3) Thymoquinone was weighed and dissolved in Dimethyl sulfoxide (DMSO) to produce a thymoquinone stock solution with a concentration of 5,120 μg/ml. Gentamicin sulfate was weighed and dissolved in water to produce a gentamicin sulfate stock solution with a concentration of 5,120 μg/ml, equivalent to gentamicin base.
(§4) Dilutions of thymoquinone and gentamicin sulfate stock solutions were prepared volumetrically in the MHB as follows:
(§5) One mL of original stock solution (5,120 μg/ml) was added to 9 ml sterile MHB to give the working first dilution (512 μg/mL). 12 sterile 7 mL PJ tubes were arranged in a rack in a row. Each tube contained one mL sterile MHB. Ten tubes were labeled as 128 μg/mL, 64 μg/mL, 32 μg/mL, 16 μg/mL, 8 μg/mL, 4 μg/mL, 2 μg/mL, 1 μg/mL, 0.5 μg/mL and 0.25 μg/mL. The eleventh and twelfth tubes were labeled as positive and negative control, respectively.
(§6) The working dilution (512 μg/mL) was serially diluted to give two-fold dilutions. One mL of the working dilution (512 μg/mL) was dispensed in the first tube (labeled as 128 μg/mL) to give a concentration of 256 μg drug/mL MHB. One mL of the first tube was added to the second tube (labeled as 64 μg/mL) to give a concentration of 128 μg drug/mL MHB. One mL of the second tube was transferred to the third tube (labeled as 32 μg/mL) to give a concentration of 64 μg drug/mL MHB. One mL of the third tube was added to the fourth tube (labeled as 16 μg/mL) to give a concentration of 32 μg drug/mL MHB. One mL of the fourth tube was dispensed in the fifth tube (labeled as 8 μg/mL) to give a concentration of 16 μg drug/mL MHB. One mL of the fifth tube was dispensed in the sixth tube (labeled as 4 μg/mL) to give a concentration of 8 μg drug/mL MHB. One mL of the sixth tube was added to the seventh tube (labeled as 2 μg/mL) to give a concentration of 4 μg drug/mL MHB. One mL of the seventh tube was added to the eighth tube (labeled as 1 μg/mL) to give a concentration of 2 μg drug/mL MHB. One mL of the eighth tube was transferred to the ninth tube (labeled as 0.5 μg/mL) to give a concentration of 1 μg drug/mL MHB. One mL of the ninth tube was transferred to the tenth tube (labeled as 0.25 μg/mL) to give a concentration of 0.5 μg drug/mL MHB. The contents were mixed thoroughly by pipetting up and down three times. One mL of the content of the tenth tube was discarded.
(§7) The inoculum suspensions (at 1-2×10^8 CFU/mL) were diluted 1:100 in MHB to obtain 1×10^6 CFU/mL. One mL of the diluted inoculum suspension (1×10^6 CFU/mL) was transferred to each tube except tube 12.
(§8) All inoculated tubes were incubated for 16-20 hours at 37° C. aerobically. […]

[2] = test system: Acinetobacter baumannii isolates and Acinetobacter baumannii ATCC BAA 747; assay: as above
Method: as §1, §2, §3, §4, §5, §6, §7, §8

[3] = test system: Acinetobacter baumannii isolates; assay: Antimicrobial susceptibility test, disc diffusion method (CLSI M100-S24); design: key to Inhibition zone: “NZ” indicated that no zone of inhibition was observed; conditions: for susceptibility category: AK disc; for Inhibition zone: disc diffusion
Method in brief: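 Disc diffusion per CLSI M100-S24 on 33 MDR clinical A. baumannii isolates from burn wards; 0.5 McFarland inoculum swabbed onto Mueller-Hinton agar, incubated aerobically 35-37° C, 18-20 h. Zone diameters measured to nearest mm and categorized S/I/R by CLSI breakpoints.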

Gentamicin sulfate
MIC [1]: ≤2 µg/mL | MIC ([2]; A. baumannii ATCC BAA 747 (standard sensitive strain)): 1 µg/mL | MIC ([2]; isolate AB7): 32 µg/mL | MIC ([2]; isolate AB8): 64 µg/mL | MIC ([2]; isolate AB10): 32 µg/mL | MIC ([2]; isolate AB11): 32 µg/mL | MIC ([2]; isolate AB12): 32 µg/mL | MIC ([2]; isolate AB13): 32 µg/mL

NCC[C@H](O)C(=O)N[C@@H]1C[C@H](N)[C@@H](O[C@H]2O[C@H](CN)[C@@H](O)[C@H](O)[C@H]2O)[C@H](O)[C@H]1O[C@H]1O[C@H](CO)[C@@H](O)[C@H](N)[C@H]1O [AK, Amikacin]
susceptibility category ([3]; isolate AB1): S (Sensitive ≥17) | Inhibition zone ([3]; isolate AB1): 24 mm | susceptibility category ([3]; isolate AB2): S (Sensitive ≥17) | Inhibition zone ([3]; isolate AB2): 20 mm | susceptibility category ([3]; isolate AB3): S (Sensitive ≥17) | Inhibition zone ([3]; isolate AB3): 26 mm | susceptibility category ([3]; isolate AB4): S (Sensitive ≥17) | Inhibition zone ([3]; isolate AB4): 21 mm | Inhibition zone ([3]; isolate AB5): 7 mm | susceptibility category ([3]; isolate AB6): S (Sensitive ≥17) | Inhibition zone ([3]; isolate AB6): 30 mm | Inhibition zone ([3]; isolate AB7): NZ | Inhibition zone ([3]; isolate AB8): 12 mm | susceptibility category ([3]; isolate AB9): S (Sensitive ≥17) | Inhibition zone ([3]; isolate AB9): 22 mm | Inhibition zone ([3]; isolate AB10): NZ | Inhibition zone ([3]; isolate AB11): NZ | susceptibility category ([3]; isolate AB12): S (Sensitive ≥17) | Inhibition zone ([3]; isolate AB12): 21 mm | susceptibility category ([3]; isolate AB13): S (Sensitive ≥17) | Inhibition zone ([3]; isolate AB13): 22 mm | Inhibition zone ([3]; isolate AB14): NZ | Inhibition zone ([3]; isolate AB15): 13 mm | susceptibility category ([3]; isolate AB16): S (Sensitive ≥17) | Inhibition zone ([3]; isolate AB16): 19 mm | susceptibility category ([3]; isolate AB17): S (Sensitive ≥17) | Inhibition zone ([3]; isolate AB17): 22 mm | Inhibition zone ([3]; isolate AB18): 14 mm | Inhibition zone ([3]; isolate AB19): 14 mm | Inhibition zone ([3]; isolate AB20): NZ | Inhibition zone ([3]; isolate AB21): 11 mm | Inhibition zone ([3]; isolate AB22): NZ | Inhibition zone ([3]; isolate AB23): NZ | Inhibition zone ([3]; isolate AB24): 14 mm | Inhibition zone ([3]; isolate AB25): NZ | susceptibility category ([3]; isolate AB26): S (Sensitive ≥17) | Inhibition zone ([3]; isolate AB26): 18 mm | Inhibition zone ([3]; isolate AB27): 9 mm | Inhibition zone ([3]; isolate AB28): 15 mm | Inhibition zone ([3]; isolate AB29): 15 mm | Inhibition zone ([3]; isolate AB30): 15 mm | Inhibition zone ([3]; isolate AB31): NZ | Inhibition zone ([3]; isolate AB32): NZ | susceptibility category ([3]; isolate AB33): S (Sensitive ≥17) | Inhibition zone ([3]; isolate AB33): 25 mm

CO/N=C(\C(=O)N[C@@H]1C(=O)N2C(C(=O)O)=C(COC(C)=O)CS[C@H]12)c1csc(N)n1 [CTX, Cefotaxime]
Inhibition zone ([3]; isolate AB1): NZ | Inhibition zone ([3]; isolate AB2): NZ | Inhibition zone ([3]; isolate AB3): 15 mm | Inhibition zone ([3]; isolate AB4): 8 mm | Inhibition zone ([3]; isolate AB5): NZ | Inhibition zone ([3]; isolate AB6): 17 mm | Inhibition zone ([3]; isolate AB7): NZ | Inhibition zone ([3]; isolate AB8): NZ | Inhibition zone ([3]; isolate AB9): 11 mm | Inhibition zone ([3]; isolate AB10): NZ | Inhibition zone ([3]; isolate AB11): NZ | Inhibition zone ([3]; isolate AB12): NZ | Inhibition zone ([3]; isolate AB13): NZ | Inhibition zone ([3]; isolate AB14): NZ | Inhibition zone ([3]; isolate AB15): NZ | Inhibition zone ([3]; isolate AB16): 32 mm | Inhibition zone ([3]; isolate AB17): NZ | Inhibition zone ([3]; isolate AB18): NZ | Inhibition zone ([3]; isolate AB19): NZ | Inhibition zone ([3]; isolate AB20): NZ | Inhibition zone ([3]; isolate AB21): NZ | Inhibition zone ([3]; isolate AB22): NZ | Inhibition zone ([3]; isolate AB23): NZ | Inhibition zone ([3]; isolate AB24): NZ | Inhibition zone ([3]; isolate AB25): 16 mm | Inhibition zone ([3]; isolate AB26): NZ | Inhibition zone ([3]; isolate AB27): NZ | Inhibition zone ([3]; isolate AB28): NZ | Inhibition zone ([3]; isolate AB29): NZ | Inhibition zone ([3]; isolate AB30): NZ | Inhibition zone ([3]; isolate AB31): 8 mm | Inhibition zone ([3]; isolate AB32): 8 mm | Inhibition zone ([3]; isolate AB33): 21 mm
